Tests used:
Assay in all cases: KinaseProfiler kinase assay
Type in all cases: biochemical
WNK3(h) = WNK3(h) (Homo sapiens, UniProt Q9BYP7)
Summary of the method: (§1)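 Kinase activity is followed by incorporation of 33P from [γ-33P]ATP in 8 mM MOPS pH 7.0 with 10 mM Mg acetate and 0.2 mM EDTA over 40 min at room temperature. Inhibition is scaled between no-kinase and phosphopeptide control wells.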

ROCK-I(h) = ROCK-I(h) (Homo sapiens, UniProt Q13464)
Summary of the method: as §1

NEK11(h) = NEK11(h) (Homo sapiens, UniProt Q8NG66)
Summary of the method: as §1

PAK4(h) = PAK4(h) (Homo sapiens, UniProt O96013)
Summary of the method: as §1

CaMKIIγ(h) = CaMKIIγ(h) (Homo sapiens, UniProt Q13555)
Summary of the method: as §1

[1] = target: PI3 Kinase (p110α(E545K)/p85α)(h) (Homo sapiens, UniProt P42336, E545K)
Summary of the method: as §1

SGK(h) = SGK(h) (Homo sapiens, UniProt O00141)
Summary of the method: as §1

Plk1(h) = Plk1(h) (Homo sapiens, UniProt P53350)
Summary of the method: as §1

GRK7(h) = GRK7(h) (Homo sapiens, UniProt Q8WTQ7)
Summary of the method: as §1

BrSK1(h) = BrSK1(h) (Homo sapiens, UniProt Q8TDC3)
Summary of the method: as §1

PrKX(h) = PrKX(h) (Homo sapiens, UniProt P51817)
Summary of the method: as §1

Rsk1(h) = Rsk1(h) (Homo sapiens, UniProt Q15418)
Summary of the method: as §1

ROCK-II(r) = ROCK-II(r) (Rattus norvegicus, UniProt Q62868)
Summary of the method: as §1

MRCKα(h) = MRCKα(h) (Homo sapiens, UniProt Q5VT25)
Summary of the method: as §1

Rse(h) = Rse(h) (Homo sapiens, UniProt Q06418)
Summary of the method: as §1

ALK4(h) = ALK4(h) (Homo sapiens, UniProt P36896)
Sequence of ALK4(h) (P36896 24-505): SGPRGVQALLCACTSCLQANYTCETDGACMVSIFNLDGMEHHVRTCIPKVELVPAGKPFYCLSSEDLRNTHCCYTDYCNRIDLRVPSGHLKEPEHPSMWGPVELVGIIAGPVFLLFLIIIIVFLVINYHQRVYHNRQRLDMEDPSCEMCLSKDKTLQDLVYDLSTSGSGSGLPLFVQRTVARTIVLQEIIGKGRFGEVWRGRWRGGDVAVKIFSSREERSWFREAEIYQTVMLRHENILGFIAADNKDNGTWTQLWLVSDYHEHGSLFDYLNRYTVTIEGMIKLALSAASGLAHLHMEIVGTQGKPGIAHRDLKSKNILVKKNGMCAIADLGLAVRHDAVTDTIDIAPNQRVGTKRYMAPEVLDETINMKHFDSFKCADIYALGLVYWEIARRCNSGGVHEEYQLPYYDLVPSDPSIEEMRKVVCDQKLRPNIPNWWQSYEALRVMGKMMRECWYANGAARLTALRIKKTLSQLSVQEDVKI
Summary of the method: as §1

Plk3(h) = Plk3(h) (Homo sapiens, UniProt Q9H4B4)
Summary of the method: as §1

ZAP-70(h) = ZAP-70(h) (Homo sapiens, UniProt P43403)
Summary of the method: as §1

CDK9/cyclin T1(h) = CDK9/cyclin T1(h) (Homo sapiens, UniProt P50750)
Sequence of CDK9/cyclin T1(h) (P50750 whole entry): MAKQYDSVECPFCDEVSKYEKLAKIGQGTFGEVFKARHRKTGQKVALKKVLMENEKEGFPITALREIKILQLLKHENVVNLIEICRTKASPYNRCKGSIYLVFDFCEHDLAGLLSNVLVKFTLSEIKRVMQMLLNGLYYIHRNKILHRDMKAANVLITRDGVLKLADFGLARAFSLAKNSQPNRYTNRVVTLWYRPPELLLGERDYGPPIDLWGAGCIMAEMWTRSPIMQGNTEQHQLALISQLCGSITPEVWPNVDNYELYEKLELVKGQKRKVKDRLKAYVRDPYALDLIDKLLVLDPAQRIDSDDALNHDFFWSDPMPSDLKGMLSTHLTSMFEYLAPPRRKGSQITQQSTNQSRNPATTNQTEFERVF
Sequence of CDK9/cyclin T1(h) (O60563 whole entry partner): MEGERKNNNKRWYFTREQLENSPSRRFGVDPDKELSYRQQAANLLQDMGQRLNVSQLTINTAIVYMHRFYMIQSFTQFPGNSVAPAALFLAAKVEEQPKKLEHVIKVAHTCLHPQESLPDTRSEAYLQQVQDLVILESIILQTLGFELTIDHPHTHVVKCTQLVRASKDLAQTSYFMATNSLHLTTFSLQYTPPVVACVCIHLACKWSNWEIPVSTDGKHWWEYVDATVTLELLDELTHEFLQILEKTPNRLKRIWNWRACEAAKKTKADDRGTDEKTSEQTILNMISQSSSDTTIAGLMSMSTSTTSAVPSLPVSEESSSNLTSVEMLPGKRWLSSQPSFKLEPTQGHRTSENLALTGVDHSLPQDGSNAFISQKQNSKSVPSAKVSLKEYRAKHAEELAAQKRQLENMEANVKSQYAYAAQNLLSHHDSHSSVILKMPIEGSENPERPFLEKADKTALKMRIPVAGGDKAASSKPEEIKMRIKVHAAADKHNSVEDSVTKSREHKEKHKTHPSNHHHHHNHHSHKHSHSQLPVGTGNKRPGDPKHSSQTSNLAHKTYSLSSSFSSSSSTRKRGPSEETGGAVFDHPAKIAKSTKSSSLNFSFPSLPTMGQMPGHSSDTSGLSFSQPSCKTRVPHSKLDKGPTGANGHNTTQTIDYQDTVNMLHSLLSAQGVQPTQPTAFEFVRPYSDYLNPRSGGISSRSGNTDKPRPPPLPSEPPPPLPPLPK
Summary of the method: as §1

[2] = target: PI3 Kinase (p110α(E542K)/p85α)(m) (Mus musculus, UniProt P42337, E542K)
Summary of the method: as §1

PDGFRα(V561D)(h) = PDGFRα(V561D)(h) (Homo sapiens, UniProt P16234, V561D)
Summary of the method: as §1

CDK3/cyclinE(h) = CDK3/cyclinE(h) (Homo sapiens, UniProt Q00526)
Sequence of CDK3/cyclinE(h) (Q00526 whole entry): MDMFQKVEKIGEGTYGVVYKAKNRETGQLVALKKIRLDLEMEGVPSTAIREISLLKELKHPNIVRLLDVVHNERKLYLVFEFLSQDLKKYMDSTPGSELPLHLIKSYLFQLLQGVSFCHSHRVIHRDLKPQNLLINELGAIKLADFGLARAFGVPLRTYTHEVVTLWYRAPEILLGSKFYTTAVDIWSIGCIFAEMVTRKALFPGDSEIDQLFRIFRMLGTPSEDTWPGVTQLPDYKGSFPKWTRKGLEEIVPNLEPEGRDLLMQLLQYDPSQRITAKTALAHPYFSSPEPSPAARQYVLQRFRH
Sequence of CDK3/cyclinE(h) (P24864 whole entry partner): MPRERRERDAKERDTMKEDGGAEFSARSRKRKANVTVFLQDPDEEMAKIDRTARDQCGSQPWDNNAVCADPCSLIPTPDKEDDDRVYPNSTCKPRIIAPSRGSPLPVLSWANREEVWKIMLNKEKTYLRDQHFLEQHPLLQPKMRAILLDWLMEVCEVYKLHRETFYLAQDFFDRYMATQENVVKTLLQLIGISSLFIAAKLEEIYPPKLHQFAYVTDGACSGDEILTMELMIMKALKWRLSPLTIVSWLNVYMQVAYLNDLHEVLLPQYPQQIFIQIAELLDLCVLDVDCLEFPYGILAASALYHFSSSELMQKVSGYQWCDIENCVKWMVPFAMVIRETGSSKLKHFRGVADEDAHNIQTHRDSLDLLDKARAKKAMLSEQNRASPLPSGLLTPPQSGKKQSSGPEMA
Summary of the method: as §1

ULK2(h) = ULK2(h) (Homo sapiens, UniProt Q8IYT8)
Summary of the method: as §1

PKCθ(h) = PKCθ(h) (Homo sapiens, UniProt Q04759)
Summary of the method: as §1

MAPK1(h) = MAPK1(h) (Homo sapiens, UniProt P27361)
Sequence of MAPK1(h) (P27361 whole entry): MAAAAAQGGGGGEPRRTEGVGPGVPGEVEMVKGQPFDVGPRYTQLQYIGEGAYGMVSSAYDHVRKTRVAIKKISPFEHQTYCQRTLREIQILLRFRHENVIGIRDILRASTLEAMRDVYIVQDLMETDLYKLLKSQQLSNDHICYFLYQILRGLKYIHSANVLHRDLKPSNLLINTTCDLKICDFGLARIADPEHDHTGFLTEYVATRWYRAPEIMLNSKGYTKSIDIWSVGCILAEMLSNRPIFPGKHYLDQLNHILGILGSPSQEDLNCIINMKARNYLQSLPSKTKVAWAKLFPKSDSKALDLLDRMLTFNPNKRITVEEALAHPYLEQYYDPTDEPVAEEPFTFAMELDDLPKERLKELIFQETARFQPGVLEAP
Summary of the method: as §1

cKit(D816H)(h) = cKit(D816H)(h) (Homo sapiens, UniProt P10721, D816H)
Summary of the method: as §1

PKBα(h) = PKBα(h) (Homo sapiens, UniProt P31749)
Sequence of PKBα(h) (P31749 whole entry): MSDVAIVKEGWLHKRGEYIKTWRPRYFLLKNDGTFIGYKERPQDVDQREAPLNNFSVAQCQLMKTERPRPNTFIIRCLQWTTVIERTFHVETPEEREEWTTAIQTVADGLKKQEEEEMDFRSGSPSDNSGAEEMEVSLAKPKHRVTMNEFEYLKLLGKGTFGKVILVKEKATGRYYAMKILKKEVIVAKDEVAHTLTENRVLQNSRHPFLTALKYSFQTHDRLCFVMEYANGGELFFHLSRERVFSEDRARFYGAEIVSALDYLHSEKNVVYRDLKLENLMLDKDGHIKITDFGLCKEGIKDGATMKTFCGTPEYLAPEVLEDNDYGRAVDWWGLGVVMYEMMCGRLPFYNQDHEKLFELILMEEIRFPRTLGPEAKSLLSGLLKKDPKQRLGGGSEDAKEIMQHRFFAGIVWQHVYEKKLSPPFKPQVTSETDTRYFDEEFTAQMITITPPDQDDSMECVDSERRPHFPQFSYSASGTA
Summary of the method: as §1

Abl(m) = Abl(m) (Mus musculus, UniProt P00520)
Summary of the method: as §1

Met(h) = Met(h) (Homo sapiens, UniProt P08581)
Summary of the method: as §1

Met(D1246N)(h) = Met(D1246N)(h) (Homo sapiens, UniProt P08581, D1228N)
Summary of the method: as §1

ErbB4(h) = ErbB4(h) (Homo sapiens, UniProt Q15303)
Summary of the method: as §1

Sequence of WNK3(h) (Q9BYP7 whole entry): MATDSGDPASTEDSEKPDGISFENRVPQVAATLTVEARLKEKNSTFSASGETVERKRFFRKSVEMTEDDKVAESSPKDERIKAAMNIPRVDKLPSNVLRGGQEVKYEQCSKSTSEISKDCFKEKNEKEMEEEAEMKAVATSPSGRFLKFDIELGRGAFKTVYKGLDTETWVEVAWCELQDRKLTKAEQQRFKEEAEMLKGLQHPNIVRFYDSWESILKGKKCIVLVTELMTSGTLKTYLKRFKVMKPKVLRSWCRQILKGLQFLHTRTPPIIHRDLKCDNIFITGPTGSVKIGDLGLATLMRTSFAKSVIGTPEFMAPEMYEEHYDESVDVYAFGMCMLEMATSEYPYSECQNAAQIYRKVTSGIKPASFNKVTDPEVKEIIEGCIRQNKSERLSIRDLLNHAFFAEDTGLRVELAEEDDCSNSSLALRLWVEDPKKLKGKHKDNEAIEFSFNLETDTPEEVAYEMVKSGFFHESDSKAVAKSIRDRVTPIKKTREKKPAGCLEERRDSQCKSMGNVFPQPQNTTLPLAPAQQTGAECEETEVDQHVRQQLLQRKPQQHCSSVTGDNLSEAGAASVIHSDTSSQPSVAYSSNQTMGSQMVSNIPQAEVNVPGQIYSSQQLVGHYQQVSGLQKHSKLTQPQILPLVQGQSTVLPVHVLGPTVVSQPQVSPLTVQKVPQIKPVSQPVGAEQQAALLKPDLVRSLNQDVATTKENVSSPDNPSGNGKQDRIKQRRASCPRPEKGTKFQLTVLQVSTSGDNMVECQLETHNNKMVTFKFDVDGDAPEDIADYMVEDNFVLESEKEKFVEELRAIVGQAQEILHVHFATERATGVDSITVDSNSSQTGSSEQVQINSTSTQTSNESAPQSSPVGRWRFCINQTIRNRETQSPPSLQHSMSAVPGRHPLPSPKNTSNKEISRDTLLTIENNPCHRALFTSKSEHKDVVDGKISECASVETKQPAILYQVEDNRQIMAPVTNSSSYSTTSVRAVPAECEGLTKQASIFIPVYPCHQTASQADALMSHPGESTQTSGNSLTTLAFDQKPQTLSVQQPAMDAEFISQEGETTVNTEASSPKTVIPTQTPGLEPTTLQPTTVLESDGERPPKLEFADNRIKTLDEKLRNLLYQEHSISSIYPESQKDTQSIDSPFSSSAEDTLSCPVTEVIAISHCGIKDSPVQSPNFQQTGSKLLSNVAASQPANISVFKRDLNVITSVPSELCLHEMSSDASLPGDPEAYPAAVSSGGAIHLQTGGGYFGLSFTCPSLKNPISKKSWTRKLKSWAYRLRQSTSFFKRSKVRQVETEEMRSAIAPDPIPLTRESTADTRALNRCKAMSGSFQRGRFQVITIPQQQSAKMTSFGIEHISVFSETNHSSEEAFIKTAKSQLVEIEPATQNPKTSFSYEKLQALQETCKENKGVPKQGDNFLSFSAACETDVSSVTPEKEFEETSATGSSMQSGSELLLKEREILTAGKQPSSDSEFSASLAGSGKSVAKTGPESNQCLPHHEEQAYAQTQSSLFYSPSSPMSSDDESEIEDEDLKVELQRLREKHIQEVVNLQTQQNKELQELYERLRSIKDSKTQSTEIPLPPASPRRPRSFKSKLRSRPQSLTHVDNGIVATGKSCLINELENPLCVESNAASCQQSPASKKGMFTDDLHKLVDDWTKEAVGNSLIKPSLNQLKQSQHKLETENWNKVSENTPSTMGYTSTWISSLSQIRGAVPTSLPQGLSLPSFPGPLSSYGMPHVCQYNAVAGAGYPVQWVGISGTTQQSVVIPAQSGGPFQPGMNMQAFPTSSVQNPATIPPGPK

Compound	inhibition at 0.1 µM (WNK3(h))	inhibition at 0.1 µM (ROCK-I(h))	inhibition at 0.1 µM (NEK11(h))	inhibition at 0.1 µM (PAK4(h))	inhibition at 0.1 µM (CaMKIIγ(h))	inhibition at 0.1 µM [1]	inhibition at 0.1 µM (SGK(h))	inhibition at 0.1 µM (Plk1(h))	inhibition at 0.1 µM (GRK7(h))	inhibition at 0.1 µM (BrSK1(h))	inhibition at 0.1 µM (PrKX(h))	inhibition at 0.1 µM (Rsk1(h))	inhibition at 0.1 µM (ROCK-II(r))	inhibition at 0.1 µM (MRCKα(h))	inhibition at 0.1 µM (Rse(h))	inhibition at 0.1 µM (ALK4(h))	inhibition at 0.1 µM (Plk3(h))	inhibition at 0.1 µM (ZAP-70(h))	inhibition at 0.1 µM (CDK9/cyclin T1(h))	inhibition at 0.1 µM [2]	also measured
Cc1cc2c(F)c(Oc3nc(Nc4cc(C5CC5)[nH]n4)cc(N4CCN(C)CC4)n3)ccc2[nH]1 [Compound 10]	1%	-15%	-8%	29%	-8%	-2%	-38%	-9%	-4%	47%	13%	-10%	13%	2%	3%	77%	1%	3%	22%	1%	inhibition at 0.1 µM (PDGFRα(V561D)(h)): 86%; inhibition at 0.1 µM (CDK3/cyclinE(h)): 0%; inhibition at 0.1 µM (ULK2(h)): 37%; inhibition at 0.1 µM (PKCθ(h)): 21%; inhibition at 0.1 µM (MAPK1(h)): -4%; inhibition at 0.1 µM (cKit(D816H)(h)): 86%; inhibition at 0.1 µM (PKBα(h)): -24%; inhibition at 0.1 µM (Abl(m)): 101%; inhibition at 0.1 µM (Met(h)): 54%; inhibition at 0.1 µM (Met(D1246N)(h)): 80%; inhibition at 0.1 µM (ErbB4(h)): 13%
Cc1cc2c(F)c(Oc3nc(Nc4cc(C5CC5)[nH]n4)cc(N4CCNCC4)n3)ccc2[nH]1 [Compound 11, N-(5-cyclopropyl-1H-pyrazol-3-yl)-2-((4-fluoro-2-methyl-1H-indol-5-yl)oxy)-6-(piperazin-1-yl)pyrimidin-4-amine]	8%	-15%	-6%	23%	22%	2%	-19%	-10%	0%	40%	35%	9%	16%	-3%	11%	81%	1%	-13%	32%	1%	inhibition at 0.1 µM (PDGFRα(V561D)(h)): 72%; inhibition at 0.1 µM (CDK3/cyclinE(h)): 33%; inhibition at 0.1 µM (ULK2(h)): 30%; inhibition at 0.1 µM (PKCθ(h)): -16%; inhibition at 0.1 µM (MAPK1(h)): -10%; inhibition at 0.1 µM (cKit(D816H)(h)): 91%; inhibition at 0.1 µM (PKBα(h)): -4%; inhibition at 0.1 µM (Abl(m)): 104%; inhibition at 0.1 µM (Met(h)): 47%; inhibition at 0.1 µM (Met(D1246N)(h)): 84%; inhibition at 0.1 µM (ErbB4(h)): -5%
